Earlier results as cited in patent publication US8637296B2, “Lactobacillus helveticus strains for producing hypotensive peptides” (Nestec S.A., priority 2008, dated 2014).

Molecular target: angiotensin converting enzyme (ACE) (Homo sapiens, UniProt P12821)
Sequence (P12821 30-1306, species assumed): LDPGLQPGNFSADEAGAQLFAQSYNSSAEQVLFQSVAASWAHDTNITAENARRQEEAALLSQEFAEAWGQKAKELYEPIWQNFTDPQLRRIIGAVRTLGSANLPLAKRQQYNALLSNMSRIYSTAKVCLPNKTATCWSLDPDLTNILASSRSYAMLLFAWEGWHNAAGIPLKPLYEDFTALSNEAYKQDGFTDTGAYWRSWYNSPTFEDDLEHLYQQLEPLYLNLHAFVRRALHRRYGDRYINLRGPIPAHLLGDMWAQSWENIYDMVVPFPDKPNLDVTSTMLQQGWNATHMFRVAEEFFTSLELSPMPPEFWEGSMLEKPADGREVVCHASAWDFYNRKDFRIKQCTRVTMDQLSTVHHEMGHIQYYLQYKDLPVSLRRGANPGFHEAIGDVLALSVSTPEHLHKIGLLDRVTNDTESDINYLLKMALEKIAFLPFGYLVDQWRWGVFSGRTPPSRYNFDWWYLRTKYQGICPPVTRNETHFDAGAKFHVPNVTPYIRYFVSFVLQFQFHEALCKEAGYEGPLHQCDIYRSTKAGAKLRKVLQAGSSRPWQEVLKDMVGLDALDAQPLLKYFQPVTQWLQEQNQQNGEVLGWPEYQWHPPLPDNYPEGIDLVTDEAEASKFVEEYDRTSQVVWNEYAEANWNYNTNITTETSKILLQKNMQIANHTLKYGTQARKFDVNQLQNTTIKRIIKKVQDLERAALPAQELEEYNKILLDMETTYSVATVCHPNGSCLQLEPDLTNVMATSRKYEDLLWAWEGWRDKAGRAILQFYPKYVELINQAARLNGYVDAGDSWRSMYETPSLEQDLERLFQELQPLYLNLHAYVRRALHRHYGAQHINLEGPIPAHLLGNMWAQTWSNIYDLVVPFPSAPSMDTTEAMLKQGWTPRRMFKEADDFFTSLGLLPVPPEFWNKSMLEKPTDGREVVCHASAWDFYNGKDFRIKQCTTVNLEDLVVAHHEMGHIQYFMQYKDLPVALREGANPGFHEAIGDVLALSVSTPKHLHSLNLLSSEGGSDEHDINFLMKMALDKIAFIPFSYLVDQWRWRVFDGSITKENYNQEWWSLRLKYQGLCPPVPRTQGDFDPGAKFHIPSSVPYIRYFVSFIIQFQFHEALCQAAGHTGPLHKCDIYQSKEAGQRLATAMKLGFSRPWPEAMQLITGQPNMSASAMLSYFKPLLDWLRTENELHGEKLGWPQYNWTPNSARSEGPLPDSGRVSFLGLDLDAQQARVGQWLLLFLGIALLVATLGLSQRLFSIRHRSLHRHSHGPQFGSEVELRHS

| inhibition of angiotensin converting enzyme (ACE) | SMILES |
| --- | --- |
| inhibit | CC[C@H](C)[C@H](N)C(=O)N1CCC[C@H]1C(=O)N1CCC[C@H]1C(=O)O [IPP, isoleucyl-prolyl-proline] |
| inhibit | CC(C)[C@H](N)C(=O)N1CCC[C@H]1C(=O)N1CCC[C@H]1C(=O)O [VPP, valyl-prolyl-proline] |
